The source of these data is patent US6849648B2, “Phenylene alkyne matrix metalloproteinase inhibitors” (Warner-Lambert Company, priority 2001, dated 2005).

Series [1] concerns the target T1, MMP-1FL (full length interstitial collagenase) (Homo sapiens, UniProt P03956).
T1 sequence (P03956 100-469): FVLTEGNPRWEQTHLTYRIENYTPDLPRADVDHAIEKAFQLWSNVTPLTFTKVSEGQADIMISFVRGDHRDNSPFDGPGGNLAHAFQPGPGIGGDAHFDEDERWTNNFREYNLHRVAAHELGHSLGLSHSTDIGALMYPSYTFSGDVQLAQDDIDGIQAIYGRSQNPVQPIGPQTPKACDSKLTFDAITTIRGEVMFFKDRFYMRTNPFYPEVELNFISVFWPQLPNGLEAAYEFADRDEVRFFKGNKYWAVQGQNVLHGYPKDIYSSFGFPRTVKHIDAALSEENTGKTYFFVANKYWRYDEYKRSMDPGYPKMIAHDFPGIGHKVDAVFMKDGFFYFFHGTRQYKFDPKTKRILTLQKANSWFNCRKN
As to the kind of experiment: Thiopeptolide hydrolysis assay, full length interstitial collagenase. Type of series: biochemical. The conditions noted are these: Table 3; full-length MMP01. An excerpt:
(§1) The assays measure the amount by which a test compound reduces the hydrolysis of a thiopeptolide substrate caused by a matrix metalloproteinase enzyme. Such assays are described in detail by Ye et al., in Biochemistry, 1992;31(45):11231-11235, which is incorporated herein by reference.
(§2) Thiopeptolide substrates show virtually no decomposition or hydrolysis in the absence of a matrix metalloproteinase enzyme. A typical thiopeptolide substrate commonly utilized for assays is Ac-Pro-Leu-Gly-thioester-Leu-Leu-Gly-OEt. A 100 μL assay mixture will contain 50 mM of 2-morpholinoethane sulfonic acid monohydrate (MES, pH 6.0) 10 mM CaCl2, 100 μM thiopeptolide substrate, and 1 mM 5,5′-dithio-bis-(2-nitro-benzoic acid) (DTNB). The thiopeptolide substrate concentration is varied from 10 to 800 μM to obtain Km and Kcat values. The change in absorbance at 405 nm is monitored on a Thermo Max microplate reader (molecular Devices, Menlo Park, Calif.) at room temperature (22° C.). The calculation of the amount of hydrolysis of the thiopeptolide substrate is based on E412=13600 m^−1 cm^−1 for the DTNB-derived product 3-carboxy-4-nitrothiophenoxide. Assays are carried out with and without matrix metalloproteinase inhibitor compounds, and the amount of hydrolysis is compared for a determination of inhibitory activity of the test compounds.
(§3) Several representative compounds have been evaluated for their ability to inhibit various matrix metalloproteinase enzymes. Table 1 below presents inhibitory activity as IC50's in micromolar for representative invention compounds. In the table, MMP-1FL refers to full length interstitial collagenase; MMP-2FL refers to full length Gelatinase A; MMP-3CD refers to the catalytic domain of stromelysin; MMP-7FL refers to full length matrilysin; MMP-9FL refers to full length Gelatinase B; MMP-13CD refers to the catalytic domain of collagenase 3; and MMP-14CD refers to the catalytic domain of MMP-14. Test compounds were evaluated at various concentrations in order to determine their respective IC50 values, the micromolar concentration of compound required to cause a 50% inhibition of the hydrolytic activity of the respective enzyme.

Series [2] addresses MMP-3CD (catalytic domain of stromelysin) (Homo sapiens, UniProt P08254). Nature of the series: Thiopeptolide hydrolysis assay, catalytic domain of stromelysin. Type of series: biochemical. The conditions noted are these: Table 3; MMP03 catalytic domain.
From the text: as §1, §2, §3

Series [3] addresses T2, MMP-2FL (full length Gelatinase A) (Homo sapiens, UniProt P08253).
T2 sequence (P08253 110-660): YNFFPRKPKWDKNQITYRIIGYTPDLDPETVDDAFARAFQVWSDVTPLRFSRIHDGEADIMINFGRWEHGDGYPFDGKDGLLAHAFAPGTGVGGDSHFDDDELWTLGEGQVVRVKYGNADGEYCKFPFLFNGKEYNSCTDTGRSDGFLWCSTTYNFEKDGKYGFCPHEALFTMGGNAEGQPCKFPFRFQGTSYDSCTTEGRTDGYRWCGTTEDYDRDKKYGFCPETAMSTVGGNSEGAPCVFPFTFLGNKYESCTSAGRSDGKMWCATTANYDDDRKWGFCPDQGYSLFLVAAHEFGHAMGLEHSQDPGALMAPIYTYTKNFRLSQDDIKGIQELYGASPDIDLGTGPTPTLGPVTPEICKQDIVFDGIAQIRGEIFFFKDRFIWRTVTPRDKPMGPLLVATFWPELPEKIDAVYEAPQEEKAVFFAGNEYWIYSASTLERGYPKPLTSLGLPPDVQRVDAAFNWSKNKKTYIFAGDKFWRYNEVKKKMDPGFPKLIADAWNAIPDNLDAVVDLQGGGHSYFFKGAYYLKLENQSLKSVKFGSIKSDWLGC
As to the kind of experiment: Thiopeptolide hydrolysis assay, full length Gelatinase A. Type of series: biochemical. To be noted: Table 3; full-length MMP02.
From the text: as §1, §2, §3

Series [4] addresses MMP-9FL (full length Gelatinase B) (Homo sapiens, UniProt P14780). As to the kind of experiment: Thiopeptolide hydrolysis assay, full length Gelatinase B. Type of series: biochemical. The conditions noted are these: Table 3; full-length MMP09.
From the text: as §1, §2, §3

Series [5] concerns the target MMP-14CD (catalytic domain of MMP-14) (Homo sapiens, UniProt P50281). As to the kind of experiment: Thiopeptolide hydrolysis assay, catalytic domain of MMP-14. Type of series: biochemical. To be noted: Table 3; MMP-14 catalytic domain; read-out: IC50 (μM) MMP14 (CD).
From the text: as §1, §2, §3

Series [6] deals with MMP-13CD (catalytic domain of collagenase 3) (Homo sapiens, UniProt P45452). Nature of the series: Thiopeptolide hydrolysis assay, catalytic domain of collagenase 3. Type of series: biochemical.
From the text: as §1, §2, §3

The target in series [7] is T3, MMP-7FL (full length matrilysin) (Homo sapiens, UniProt P09237).
T3 sequence (P09237 95-267): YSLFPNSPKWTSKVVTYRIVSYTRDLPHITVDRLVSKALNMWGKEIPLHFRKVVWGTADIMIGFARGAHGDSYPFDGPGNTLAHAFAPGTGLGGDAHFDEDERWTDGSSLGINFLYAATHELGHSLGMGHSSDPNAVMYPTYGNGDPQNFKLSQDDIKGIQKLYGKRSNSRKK
As to the kind of experiment: Thiopeptolide hydrolysis assay, full length matrilysin. To be noted: Table 3; full-length MMP07. The series is classed as biochemical.
From the text: as §1, §2, §3

[8] abbreviates: Table 1, thiopeptolide substrate, read-out: IC50 (μM) Versus MMPs, MMP13 (CD).
Where [9] appears, read: Table 3, MMP-13 catalytic domain, read-out: IC50 (μM) MMP13 (CD).
The mark [10] stands for this setting: Table 2, thiopeptolide substrate, read-out: MMP-13CD (IC50).

Read-outs that look alike come from different tables or passages of the source. Where only a bound is given, the exact number is not on record here.

MMP-9FL (full length Gelatinase B), sequence (P14780 94-707, species assumed): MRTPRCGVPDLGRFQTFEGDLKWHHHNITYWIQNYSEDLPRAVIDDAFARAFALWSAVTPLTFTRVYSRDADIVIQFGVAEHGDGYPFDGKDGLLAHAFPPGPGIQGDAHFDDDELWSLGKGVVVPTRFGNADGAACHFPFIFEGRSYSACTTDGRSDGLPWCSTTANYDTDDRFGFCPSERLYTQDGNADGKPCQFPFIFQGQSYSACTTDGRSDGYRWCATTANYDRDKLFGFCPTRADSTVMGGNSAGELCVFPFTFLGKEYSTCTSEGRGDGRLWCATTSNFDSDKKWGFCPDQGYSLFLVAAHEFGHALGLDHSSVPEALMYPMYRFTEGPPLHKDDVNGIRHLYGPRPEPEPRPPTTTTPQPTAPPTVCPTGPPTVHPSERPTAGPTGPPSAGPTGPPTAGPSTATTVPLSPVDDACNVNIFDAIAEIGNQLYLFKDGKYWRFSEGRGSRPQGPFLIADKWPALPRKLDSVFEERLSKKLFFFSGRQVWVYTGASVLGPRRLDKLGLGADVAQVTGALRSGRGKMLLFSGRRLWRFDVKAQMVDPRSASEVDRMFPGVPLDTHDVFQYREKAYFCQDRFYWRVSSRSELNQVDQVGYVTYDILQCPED
MMP-3CD (catalytic domain of stromelysin), sequence (P08254 100-272 limits assumed): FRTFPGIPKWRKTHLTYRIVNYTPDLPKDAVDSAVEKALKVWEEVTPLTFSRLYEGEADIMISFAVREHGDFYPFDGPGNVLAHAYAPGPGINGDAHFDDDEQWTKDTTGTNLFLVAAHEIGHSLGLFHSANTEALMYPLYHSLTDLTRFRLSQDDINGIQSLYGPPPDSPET

Broadly, the IC50 is the concentration at which inhibition is half-maximal. As usually defined, the melting point is the temperature, or range, at which the solid turns liquid. On to `CN1C(=O)N(Cc2ccccc2)S(=O)(=O)c2cc(C#CCc3ccccc3)ccc21` [Example 1, 2-Benzyl-4-methyl-1,1-dioxo-7-(3-phenyl-prop-1ynyl)-1,4-dihydro-2H-1l^6-benzo[1,2,4]thiadiazin-3-one], for which the melting point was 125 to 127 °C. This compound registered an IC50 in series [1] above 100 µM. Besides, the IC50 in series [2] is above 30 µM. The compound further had an IC50 in series [3] above 30 µM. The IC50 in series [4] was above 100 µM. Moreover, the IC50 in series [5] is above 100 µM. The concentration for half-maximal inhibition (IC50) in series [6] (setting [8]) is 2.2 µM. In addition, in series [7], the IC50 is above 30 µM.

`CN1C(=O)N(Cc2ccc(C(=O)O)cc2)S(=O)(=O)c2cc(C#CCc3ccccc3)ccc21` [Example 2, 4-[4-Methyl-1,1,3-trioxo-7-(3-phenyl-prop-1-ynyl)-3,4-dihydro-1H-1l^6-benzo[1,2,4]thiadiazin-2-ylmethyl]-benzoic acid]: the melting point fell in the range of 208 to 209 °C. The compound further came in with a half-maximal inhibitory concentration (IC50) in series [1] above 30 µM. This compound displayed an IC50 in series [2] above 10 µM. In series [3], this compound displayed an IC50 above 30 µM. For the same compound, in series [4], the IC50 is above 30 µM. The IC50 in series [5] was above 30 µM. Also, the IC50 in series [6] (setting [8]) is 0.0042 µM. In series [7], this compound showed an IC50 above 30 µM.

Regarding `O=C1Nc2ccc(C#CCc3ccccc3)cc2S(=O)(=O)N1Cc1ccccc1` [Example 3, 2-Benzyl-1,1-dioxo-7-(3-phenyl-prop-1-ynyl)-1,4-dihydro-2H-1l^6-benzo[1,2,4]thiadiazin-3-one], the IC50 in series [1] was above 30 µM; in series [2] it was above 30 µM; in series [3], above 100 µM; in series [4] it was above 30 µM; in series [5], above 30 µM; in series [6] (setting [9]) it was 0.12 µM. Also, in series [7], the IC50 is above 30 µM.

As for `N#Cc1ccc(CNC(=O)c2cccc(C#CCn3ccnn3)c2)cc1` [Example 4, N-(4-Cyano-benzyl)-3-(3-[1,2,3]-triazol-1-yl-prop-1-ynyl)-benzamide], the IC50 in series [6] (setting [10]) worked out at 100 µM.

For `N#Cc1ccc(CNC(=O)c2cccc(C#CCn3cncn3)c2)cc1` [Example 5, N-(4-Cyano-benzyl)-3-(3-[1,2,4]-triazol-1-yl-prop-1-ynyl)-benzamide], the IC50 in series [6] (setting [10]) was found to be 66 µM.

Consider `O=C(O)c1ccc(CNC(=O)c2cccc(C#CCc3ccccc3)c2)cc1` [Example 6], for which the half-maximal inhibitory concentration (IC50) in series [6] (setting [10]) amounted to 0.029 µM.

In the case of `CN1c2ccc(C#CCc3ccccc3)cc2C(=O)N(Cc2ccc(C(=O)O)cc2)[S+]1[O-]` (stereo not shown) [Example 15, 4-[1-Methyl-2,4-dioxo-6-(3-phenyl-prop-1-ynyl)-1,4-dihydro-2H-2λ^4-benzo[1,2,6]thiadiazin-3-ylmethyl]benzoic acid], the IC50 in series [1] is above 30 µM; in series [2] it was above 10 µM; in series [3], above 30 µM; in series [4] it was above 100 µM; in series [5], above 30 µM; in series [6] (setting [9]), 0.0104 µM. Also, the IC50 in series [7] amounted to 24 µM.

Take `CN1c2ccc(C#CCc3ccccc3)cc2C(=O)N(Cc2ccc(C(=O)O)cc2)S1(=O)=O` [Example 16, 4-[1-methyl-2,2,4-trioxo-6-(3-phenylprop-1-ynyl)-1,4-dihydro-2H-2λ^6-benzo[1,2,6]-thiadiazin-3-ylmethyl]benzoic acid]: the IC50 in series [1] is above 30 µM; in series [2] it was 12 µM; in series [3], above 30 µM; in series [4], above 30 µM; in series [5] it was above 30 µM; in series [6] (setting [9]), 0.0315 µM. The half-maximal inhibitory concentration (IC50) in series [7] is above 30 µM.

For `O=C(O)c1ccc(CN2C(=O)Nc3ccc(C#CCc4ccccc4)cc3S2(=O)=O)cc1` [Example 17, 4-[1,1,3-Trioxo-7-(3-phenyl-prop-1-ynyl)-3,4-dihydro-1H-1λ^6-benzo[1,2,4]thiadiazin-2-ylmethyl]-benzoic acid], the IC50 in series [1] was above 30 µM; in series [2], 5.6 µM; in series [3] it was above 100 µM; in series [4], above 100 µM; in series [5], above 30 µM; in series [6] (setting [9]), 0.00517 µM. Further, the IC50 in series [7] was 16 µM.

For the compound `COc1ccc(CN2C(=O)Nc3ccc(C#CCc4ccccc4)cc3S2(=O)=O)cc1` [Example 18, 2-(4-Methoxy-benzyl)-1,1-dioxo-7-(3-phenyl-prop-1-ynyl)-1,4-dihydro-2H, 1λ^6-benzo[1,2,4]thiadiazin-3-one], the half-inhibitory concentration (IC50) is above 30 µM in series [1]; above 30 µM in series [2]; above 30 µM in series [3]; above 30 µM in series [4]; above 30 µM in series [5]; 0.185 µM in series [6] (setting [9]). The same compound registered an IC50 in series [7] above 10 µM.

For `O=C(O)c1ccc(CN2C(=O)Nc3ccc(C#CCCc4ccccc4)cc3S2(=O)=O)cc1` [Example 19, 4-[1,1,3-Trioxo-7-(4-phenyl-but-1-ynyl)-3,4-dihydro-1H-1λ^6-benzo[1,2,4]thiadiazin-2-ylmethyl]-benzoic acid], the IC50 in series [6] (setting [9]) is 0.079 µM.
